From patent US7332279B2 (Glycozym APS, priority 1999, dated 2008)

Columns and labels:
[1] = tested on: porcine tracheal β3Gal-transferase activity; conditions: acceptor substrate; read-out: apparent Km, porcine β3Gal-transferase activity; cited from earlier work
[2] = molecular target: T1, β4Gal-T3 (Homo sapiens, UniProt O60512); assay: Galactosyltransferase assay, recombinant β4Gal-T3, saccharide acceptors; type: biochemical
T1 construct: The kinetic properties were determined with partially purified, secreted forms of the enzymes; made in house; host or cells: baculovirus; insect cells (Sf9 / High Five)
Procedure: An expression construct (pAcGP67-β3Gal-T5-sol) designed to exclude the hydrophobic transmembrane segment and to encode amino acid residues 25-310, was prepared by PCR using P1 genomic DNA, and the primer pair EBER1300 sol (5′-[…]) (SEQ ID NO:3) and EBER1310 (5′-[…]) (SEQ ID NO:4) (FIG. 1), which included BamHI restriction sites. PCR product was cloned into the BamHI site of pAcGP67B (Pharmingen). An expression construct (pVL-β3Gal-T5-full) designed to encode the full coding sequence (from first ATG, FIG. 1) was prepared by PCR with P1 genomic DNA using the primer pair EBER1309 (5′-[…]) (SEQ ID NO:5) and EBER1310. This PCR product was cloned into the BamHI site of pVL1193 (Pharmingen). Both soluble and full length constructs were fully sequenced to confirm fidelity. Plasmids pAcGP67-β3GalT5-sol and pVL-β3Gal-T5-full were co-transfected with Baculo-Gold™ DNA (Pharmingen) as described previously (Bennett, E. P., Hassan, H. and Clausen, H. cDNA cloning and expression of a novel human UDP-N-acetyl-alpha-D-galactosamine. Polypeptide N-acetyl-galactosaminyl-transferase, GalNAc-T3. J. Biol. Chem. 271:17006-17012, 1996). Recombinant Baculo-virus were obtained after two successive amplifications in Sf9 cells grown in serum-containing medium, and titers of virus were estimated by titration in 24-well plates with monitoring of enzyme activities. […] Polypeptide N-acetyl-galactosaminyl-transferase, GalNAc-T3. J. Biol. Chem. 271:17006-17012, 1996). For large scale expression amplified virus was used to infect High Five™ cells grown in serum-free media (Invitrogen) in upright roller bottles shaking at 140 rpm and 27° C.
The kinetic properties were determined with partially purified, secreted forms of the enzymes. Semipurification of enzymes from serum-free medium of infected High-Five™ cells was performed by sequential Amberlite, DEAE-Sephacel and 5-Sepharose chromatography as described previously (Wandall, H. H., Hassan, H., Mirgorodskaya, E., et al. Substrate specificities of three. members of the human UDP-N-acetyl-alpha-D-galactosamine:Polypeptide Nacetylgalactosaminyltransferase family, GalNAc-T1, -T2, and -T3. J. Biol. Chem. 272:23503-23514, 1997). Comparisons of enzymes were performed relatively to the activity obtained with βGlcNAc-Bz1 (Tables II and III). Full length enzymes were assayed with 1% Triton CF54 homogenates of washed cells. Enzyme assays were performed in 50 μl total reaction mixtures containing 25 mM Cacodylate (pH 7.5), 10 mM MnCl2, 0.25% Triton X-100, 100 μM UDP-[^14C]-Gal (2,600 cpm/nmol) (Amersham), and varying concentrations of acceptor substrates (Sigma) (see Table I for structures). Reaction products were quantified by Dowex-1 chromatography. […] The transfer of Gal was evaluated after acid precipitation by filtration through Whatman GF/C glass fibre filters. […] Assays with glycolipid acceptors were conducted as previously described (Holmes, E. H. Characterization and membrane organization of beta 1-3- and beta 1-4-galactosyltransferases from human colonic adenocarcinoma cell lines Cob 205 and SW403: basis for preferential synthesis of type 1 chain lacto-series carbohydrate structures. Arch Biochem Biophys 270:630-646, 1989) in reaction mixtures containing 2.5 μmol HEPES buffer, pH 7.2, μmol MnCl2, 100 μg taurodeoxycholate or Triton CF-54, 20 μg acceptor glycolipid, 15 nmol UDP-[^14C]-galactose (13,000 cpm/nmol) and enzyme in a total volume of 100 μl. Conditions for incubation and product isolation were as previously described (Id.).

[3] = molecular target: T2, β3Gal-T1 (Homo sapiens, UniProt Q9Y5Z6); assay: Activity of full coding construct of β3Gal-T1 expressed in Sf9 cells (Triton CF54 homogenates or media); type: biochemical; conditions: 60 hrs post-infection, acceptor 20 mM
T2 construct: Full length enzymes were assayed with 1% Triton CF54 homogenates of washed cells; made in house; host or cells: Sf9 cells, baculovirus
T2 sequence (Q9Y5Z6 1-326): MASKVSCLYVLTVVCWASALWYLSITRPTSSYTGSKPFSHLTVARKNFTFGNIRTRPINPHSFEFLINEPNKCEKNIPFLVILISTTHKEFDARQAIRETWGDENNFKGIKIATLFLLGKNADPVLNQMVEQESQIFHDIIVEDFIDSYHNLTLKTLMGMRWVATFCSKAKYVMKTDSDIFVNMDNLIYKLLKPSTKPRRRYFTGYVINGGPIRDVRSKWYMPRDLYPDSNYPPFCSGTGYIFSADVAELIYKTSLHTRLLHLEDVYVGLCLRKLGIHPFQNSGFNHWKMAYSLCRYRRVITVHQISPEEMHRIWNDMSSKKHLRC

T1 sequence (O60512 32-393 limits assumed): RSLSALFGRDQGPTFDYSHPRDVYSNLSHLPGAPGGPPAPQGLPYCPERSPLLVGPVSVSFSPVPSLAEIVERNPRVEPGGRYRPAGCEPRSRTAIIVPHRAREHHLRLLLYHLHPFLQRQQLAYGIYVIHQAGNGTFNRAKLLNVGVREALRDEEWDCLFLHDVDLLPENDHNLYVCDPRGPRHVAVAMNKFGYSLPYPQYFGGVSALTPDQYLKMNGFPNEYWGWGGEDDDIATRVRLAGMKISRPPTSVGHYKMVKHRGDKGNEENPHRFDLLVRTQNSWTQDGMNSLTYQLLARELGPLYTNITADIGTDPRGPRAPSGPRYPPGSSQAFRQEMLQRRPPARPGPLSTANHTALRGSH

Row | β4Gal-T3 activity, acceptor 0.2 mM ([2]; 0.2 mM) | β4Gal-T3 ratio to value with βGlcNAc-Bzl, acceptor 0.2 mM ([2]; 0.2 mM) | β4Gal-T3 activity, acceptor 2 mM ([2]; 2 mM) | β4Gal-T3 ratio to value with βGlcNAc-Bzl, acceptor 2 mM ([2]; 2 mM) | β3Gal-T1 full coding construct activity, Cells ([3]; 1% Triton CF54 cell homogenate) | β3Gal-T1 full coding construct activity, Media ([3]; media) | β4Gal-T3 activity with βGlcNAc-Bzl ([2]; β-D-GlcNAc-Bzl at 2 mM) | SMILES | Km [1]
1 | 0.1 nmol/min | (0.3) | 0.03 nmol/min | (1.0) | – | – | – | CC(=O)NC1C(OC2C(O)C(CO)OC(Oc3ccc([N+](=O)[O-])cc3)C2NC(C)=O)OC(CO)C(O)C1O [β-D-GlcNAc-(1–3)-α-D-GalNAc-p-Nph] | 2400 µM
2 | – | – | – | – | 7.2 nmol/min/mL | 0.2 nmol/min/mL | 0.03 nmol/min | CC(=O)N[C@H]1[C@H](OCc2ccccc2)O[C@H](CO)[C@@H](O)[C@@H]1O [β-D-GlcNAc-Bzl] | –
